Literature values in patent publication US11419835B2, “Method of treatment and prevention of bacterial vaginosis” (EVOFEM, INC., priority 2016, dated 2022).

Tested on: HIV
Settings: compared with D or racemic lactic acid

C[C@H](O)C(=O)O [L-lactic acid, L-(+)-lactic acid]
potency in inactivating HIV: more potent in inactivating HIV than D or racemic lactic acid
